Here are results for 6 compounds from PMC9687610, “Adenosine-Mimicking Derivatives of 3-Aminopyrazine-2-Carboxamide: Towards Inhibitors of Prolyl-tRNA Synthetase with Antimycobacterial Activity” (Biomolecules, 2022).

Values after ≈ are worked out from the molar mass of the structure shown. Like-named read-outs stand apart in the source and are kept apart here.

Series [1] relates to Staphylococcus epidermidis CCM 4418 (ATCC 12228). The series can be described thus: Antibacterial microdilution broth (EUCAST), SE. Format: cell-based.
In series [2] the test system is Candida albicans CCM 8320 (ATCC 24433). The series can be described thus: Antifungal microdilution broth (EUCAST), CA. Type of series: cell-based. Particulars: Candida albicans. For orientation: In broth dilution the organism is exposed to a series of concentrations in liquid medium.
The subject of series [3] is Enterococcus faecalis CCM 4224 (ATCC 29212). The series can be described thus: Antibacterial microdilution broth (EUCAST), EF. Format: cell-based. The following applies: Enterococcus faecalis.
For series [4], the system named is Candida parapsilosis CCM 8260 (ATCC 22019). The series can be described thus: Antifungal microdilution broth (EUCAST), CP. Type of series: cell-based. The following applies: Lodderomyces parapsilosis.
Series [5] concerns Staphylococcus aureus subsp. aureus CCM 4223 (ATCC 29213). The series can be described thus: Antibacterial microdilution broth (EUCAST), SA. Type of series: cell-based. Particulars: Staphylococcus aureus.
The subject of series [6] is Lichtheimia corymbifera CCM 8077. The series can be described thus: Antifungal microdilution broth (EUCAST), LC. Type of series: cell-based. Particulars: Lichtheimia corymbifera, CCM8077.
In series [7] the test system is Trichophyton interdigitale CCM 8377 (ATCC 9533). The series can be described thus: Antifungal microdilution broth (EUCAST), TI. Format: cell-based. Particulars: Trichophyton interdigitale.
In series [8] the test system is Mycobacterium smegmatis DSM 43465 (ATCC 607). The series can be described thus: Microplate Alamar Blue Assay (MABA), M. smegmatis. Format: cell-based. The following applies: Mycolicibacterium smegmatis; MABA, resazurin after 48 h; read-out: M. smegmatis MIC. On the technique in general: Resazurin is reduced to fluorescent resorufin, in cell work by metabolically active cells.

For series [9], the system named is Candida tropicalis CCM 8264 (ATCC 750). The series can be described thus: Antifungal microdilution broth (EUCAST), CT. Format: cell-based. Particulars: Candida tropicalis.
Series [10] has as its system Aspergillus flavus CCM 8363. The series can be described thus: Antifungal microdilution broth (EUCAST), AFla. Type of series: cell-based. The following applies: Aspergillus flavus, CCM8363.
Series [11] deals with Escherichia coli CCM 3954 (ATCC 25922). The series can be described thus: Antibacterial microdilution broth (EUCAST), EC. Format: cell-based. Particulars: Escherichia coli.
In series [12] the test system is Candida krusei CCM 8271 (ATCC 6258). The series can be described thus: Antifungal microdilution broth (EUCAST), CK. Particulars: Pichia kudriavzevii. Format: cell-based.
The subject of series [13] is Staphylococcus aureus subsp. aureus methicillin-resistant (MRSA) CCM 4750 (ATCC 43300). The series can be described thus: Antibacterial microdilution broth (EUCAST), MRSA. Format: cell-based. The following applies: Staphylococcus aureus.
The test system of series [14] is HepG2 human hepatocellular carcinoma cells. The series can be described thus: In vitro HepG2 cytotoxicity (CellTiter 96). Particulars: Homo sapiens, HepG2, 24 h, read-out: HepG2 IC50, 24 h incubation; * limit = highest evaluated concentration (precipitation in medium); ** over the 1000 µM limit.
Series [15] deals with Pseudomonas aeruginosa CCM 3955 (ATCC 27853). The series can be described thus: Antibacterial microdilution broth (EUCAST), PA. Type of series: cell-based. The following applies: Pseudomonas aeruginosa.
Series [16] has as its system Mycobacterium tuberculosis H37Ra ITM-M006710 (ATCC 9431). The series can be described thus: Microplate Alamar Blue Assay (MABA), Mtb H37Ra. The following applies: Mycobacterium tuberculosis, 120 h, pH 6.6, MABA, Middlebrook 7H9 broth pH 6.6, resazurin after 120 h; read-out: Mtb H37Ra MIC. Format: cell-based.
In series [17] the test system is Aspergillus fumigatus ATCC 204305. The series can be described thus: Antifungal microdilution broth (EUCAST), AF. The following applies: Aspergillus fumigatus, ATCC204305. Format: cell-based.
Series [18] deals with Acinetobacter baumannii DSM 30007 (ATCC 19606). The series can be described thus: Antibacterial microdilution broth (EUCAST), ACI. Type of series: cell-based. The following applies: Acinetobacter baumannii.
For series [19], the system named is Klebsiella pneumoniae CCM 4415 (ATCC 10031). The series can be described thus: Antibacterial microdilution broth (EUCAST), KP. Particulars: for KP MIC: read after 24 h; for MIC: Klebsiella pneumoniae.
The subject of series [20] is M. aurum DSM 43999 (ATCC 23366). The series can be described thus: Microplate Alamar Blue Assay (MABA), M. aurum. Format: cell-based. Particulars: Mycolicibacterium aurum; MABA, resazurin after 72 h; read-out: M. aurum MIC.
Setting [21] is: read after 24 h, read-out: SE MIC.
[22] abbreviates: read after 24 h, read-out: CA MIC.
Where [23] appears, read: read after 24 h, read-out: EF MIC.
Setting [24] is: read after 24 h, read-out: CP MIC.
Where [25] appears, read: read after 24 h, read-out: SA MIC.
Where [26] appears, read: read after 24 h, read-out: LC MIC.
Where [27] appears, read: read after 24 h, read-out: CT MIC.
[28] abbreviates: read after 24 h, read-out: AFla MIC.
The mark [29] stands for this setting: read after 24 h, read-out: EC MIC.
[30] abbreviates: read after 24 h, read-out: CK MIC.
The mark [31] stands for this setting: read after 24 h, read-out: MRSA MIC.
[32] abbreviates: read after 24 h, read-out: PA MIC.
Where [33] appears, read: read after 24 h, read-out: AF MIC.
[34] abbreviates: read after 24 h, read-out: ACI MIC.
Setting [35] is: internal quality control, 90% growth inhibition, 24 h, 530 nm, read-out: MIC, spectrophotometric detection*.
Setting [36] is: internal quality control, no visible growth, 24 h, read-out: MIC, visual detection**.
Setting [37] is: internal quality control, 90% growth inhibition, 48 h (moulds), 530 nm, read-out: MIC, spectrophotometric detection*.
Where [38] appears, read: internal quality control, no visible growth, 48 h (moulds), read-out: MIC, visual detection**.
The mark [39] stands for this setting: internal quality control, 95% growth inhibition, 24 h, 530 nm, read-out: MIC, spectrophotometric detection.
[40] abbreviates: internal quality control, no visible growth, 24 h, read-out: MIC, visual detection.
[41] abbreviates: internal quality control, 50% growth inhibition, 24 h, 530 nm, read-out: MIC, spectrophotometric detection***.
Setting [42] is: internal quality control, 50% growth inhibition, 48 h (moulds), 530 nm, read-out: MIC, spectrophotometric detection***.

The MIC is the lowest concentration that inhibits growth of the organism. Broadly, the IC50 is the midpoint of a concentration-inhibition curve.

For the compound `NC(=O)c1nccnc1NC(=O)c1ccccc1` [Compound 1], the MIC in series [1] (setting [21]), in series [2] (setting [22]), in [3] (setting [23]), in series [4] (setting [24]), in series [5] (setting [25]) and in series [6] (setting [26]) was above 500 µM each time. For the same compound, the MIC is above 500 µM in [7] (72 h, read-out: TI MIC); at least 500 µg/mL in series [8]; above 500 µM in series [9] (setting [27]); above 500 µM in [10] (setting [28]); above 500 µM in [11] (setting [29]); above 500 µM in series [12] (setting [30]). For the same compound, the MIC in series [13] (setting [31]) is above 500 µM; in series [15] (setting [32]), above 500 µM; in series [16], 250 µg/mL (≈ 1030 µM); in series [17] (setting [33]) it was above 500 µM; in [18] (setting [34]), above 500 µM; in [20], at least 500 µg/mL. For the same compound, the IC50 in [14] is above 250 µM. The “KP MIC” value in [19] is above 500 µM.
With `NC(=O)c1nccnc1NC(=O)c1ccccc1Cl` [Compound 13], the MIC in [1] (setting [21]), in [2] (setting [22]), in series [3] (setting [23]), in series [4] (setting [24]), in [5] (setting [25]) and in series [6] (setting [26]) was above 500 µM throughout. For the same compound, the MIC was above 500 µM in [7] (72 h, read-out: TI MIC); at least 500 µg/mL in [8]; above 500 µM in series [9] (setting [27]); above 500 µM in series [10] (setting [28]); above 500 µM in series [11] (setting [29]); above 500 µM in [12] (setting [30]). In addition, the MIC is above 500 µM in series [13] (setting [31]); above 500 µM in series [15] (setting [32]); at least 500 µg/mL in series [16]; above 500 µM in series [17] (setting [33]); above 500 µM in series [18] (setting [34]); at least 500 µg/mL in [20]. Also, in series [14], the IC50 was above 250 µM. Moreover, in series [19], the “KP MIC” value is listed as above 500 µM.
Consider `O=C(NC1Cc2ccccc2C1)c1nccnc1NC(=O)C1CCCCC1` [Compound 38, reference compound], for which the MIC is at least 500 µg/mL in series [8], 62.5 µg/mL (≈ 171 µM) in series [16] and at least 500 µg/mL in series [20]. For the same compound, the IC50 in [14] was 19.6 µM.
On to `C[C@@H]1[C@H](O)[C@@H](C)/C=C/C=C/C=C/C=C/C=C/C=C/C=C/[C@H](O[C@@H]2O[C@H](C)[C@@H](O)[C@H](N)[C@@H]2O)C[C@@H]2O[C@](O)(C[C@@H](O)C[C@@H](O)[C@H](O)CC[C@@H](O)C[C@@H](O)CC(=O)O[C@H]1C)C[C@H](O)[C@H]2C(=O)O` [amphotericin B, reference compound], for which the MIC was determined as 0.5 µg/mL in [2] (setting [35]); 0.5 µg/mL in series [2] (setting [36]); 0.5 µg/mL in series [4] (setting [35]); 0.5 µg/mL in [4] (setting [36]); 0.125 µg/mL in series [6] (setting [37]); 0.125 µg/mL in series [6] (setting [38]). Moreover, the MIC came out at 1 µg/mL in series [7] (setting [37]); 1 µg/mL in series [7] (setting [38]); 1 µg/mL in series [9] (setting [35]); 1 µg/mL in series [9] (setting [36]); 4 µg/mL in series [10] (setting [37]); 4 µg/mL in series [10] (setting [38]). Further, the MIC in [12] (setting [35]) worked out at 0.5 µg/mL; in series [12] (setting [36]), 0.5 µg/mL; in series [17] (setting [37]), 1 µg/mL; in series [17] (setting [38]), 1 µg/mL.
In the case of `CNC(C)C1CCC(N)C(OC2C(N)CC(N)C(OC3OCC(C)(O)C(NC)C3O)C2O)O1` (centres unmarked) [gentamicin, reference compound], the MIC in series [1] (setting [39]) was 0.125 µg/mL; in [1] (setting [40]) it was 0.125 µg/mL; in [3] (setting [39]) it was above 8 µg/mL; in series [3] (setting [40]), above 8 µg/mL; in series [5] (setting [39]), 1 µg/mL; in [5] (setting [40]), 0.5 µg/mL. The MIC in [11] (setting [39]) is 1 µg/mL; in series [11] (setting [40]), 1 µg/mL; in [13] (setting [39]) it was above 8 µg/mL; in series [13] (setting [40]) it was above 8 µg/mL; in series [15] (setting [39]), 0.5 µg/mL; in [15] (setting [40]) it was 0.5 µg/mL. Besides, the MIC came to 8 µg/mL in [18] (setting [39]); 8 µg/mL in series [18] (setting [40]); 0.5 µg/mL (≈ 1.05 µM) in series [19] (24 h, read-out: MIC, visual detection); 0.5 µg/mL (≈ 1.05 µM) in series [19] (ATCC10031|CCM4415, 24 h, read-out: MIC, spectrophotometric detection).
In the case of `C[C@@H](c1ncncc1F)[C@](O)(Cn1cncn1)c1ccc(F)cc1F` [voriconazole, reference compound], the MIC was 0.03 µg/mL in series [2] (setting [41]); above 16 µg/mL in [2] (setting [36]); 0.03 µg/mL in series [4] (setting [41]); above 16 µg/mL in series [4] (setting [36]); above 16 µg/mL in series [6] (setting [42]); above 16 µg/mL in series [6] (setting [38]). Moreover, the MIC in [7] (setting [42]) is above 16 µg/mL; in series [7] (setting [38]), above 16 µg/mL; in [9] (setting [41]), 0.0625 µg/mL; in [9] (setting [36]), above 16 µg/mL; in [10] (setting [42]) it was 1 µg/mL; in series [10] (setting [38]) it was above 16 µg/mL. Moreover, the MIC was 0.25 µg/mL in [12] (setting [41]), above 16 µg/mL in series [12] (setting [36]), 0.25 µg/mL in series [17] (setting [42]) and 1 µg/mL in series [17] (setting [38]).
